Source: patent US20150216865A1, “METHODS OF TREATING A BRUTON'S TYROSINE KINASE DISEASE OR DISORDER” (Celgene Avilomics Research, Inc., priority 2012, published 2015)
Marks after values point to notes of the source that are not given here.

What was measured:
[1] = system: collagen-induced arthritis Dba1 mouse model; experiment: Established collagen induced arthritis model (clinical score, histopathology, body weight); assay type: in vivo; conditions: for reduction of clinical signs of disease (inhibition of disease): established CIA
Experimental: Established Collagen Induced Arthritis Model: Experiments were carried out at Bolder Biopath, Boulder, Colo. All experiments were carried out in compliance with regulations of the Institutional Animal Care and Use Committee and were conducted in accordance with principles and procedures dictated by the highest standards of humane animal care. […] On study days 25-27, onset of arthritis occurred, and mice were randomized into treatment groups (10/treatment group, 4/group for normal). […] Randomization into each group was done after swelling was obviously established in at least one paw, and attempts were made to assure approximately equal mean scores across the groups at the time of enrollment. […] Treatment continued daily (QD at 24 h intervals) through arthritis day 14.

male NOD mice [2] = experiment: NOD mouse model, salivary gland histopathology; assay type: in vivo; conditions: 20 weeks of age
Text: Histopathology. Samples of lachrymal gland and salivary glands from all animals were fixed for Haematoxylin & Eosin histological analysis. Sections were inspected blind by a qualified histopathologist and scored for signs of pathology according to a semi-quantitative scoring system. This system is based on the mean number of inflammatory foci comprising 50 or more mononuclear inflammatory cells per objective field. The ratio of infiltrated to normal glandular tissue was expressed on a five point scale.
(i) Focus Score. The mean number of inflammatory foci comprising ≧50 mononuclear inflammatory cells per ×10 objective field was counted. Five such fields were assessed (where possible) to derive this index and these are selected to contain the maximum number of such foci. Where the overall area of the tissue section was less than five fields, the number of ×10 objective fields was recorded and used to determine the focus score. (ii) Area Score. The ratio of infiltrated to normal glandular tissue was expressed on a five point scale: • 0: No infiltrates • 1: 0-25% of the tissue section infiltrated • 2: 26-50% of the tissue section infiltrated • 3: 51-75% of the tissue section infiltrated • 4: 76-100% of the tissue section infiltrated
Salivary Gland Histopathology. […] Sections were examined and scored for two criteria: Focus Score and Area Score as outlined above.

[3] = NOD mouse model of Sjogren's syndrome, bodyweight; assay type: in vivo
Experimental: Non-Obese Diabetic Mouse (NOD) Model of Sjogren's Syndrome. Male Non Obese Diabetic (NOD) mice from the KWS BioTest NOD colony and male BALB/c mice were randomly allocated to experimental groups and allowed to acclimatise for one week prior to the beginning of the study. From six weeks of age, animals were treated according to the administration schedule in Table 5, below. Each group consisted of n=12 animals. The administration volume was 15 ml/kg from 6-12 weeks of age. The administration volume was then decreased to 10 ml/kg from 13-20 weeks of age. The vehicle was distilled water pH 3.0-3.5 for Group 7. […] Animals were weighed at the start of the study (Day 0) and once per week until termination. […] Bodyweight data, expressed in grams, were analysed by two-way ANOVA followed by Dunnett's post-test for multiple comparisons to the vehicle-treated group and presented as mean bodyweights for each group (FIG. 12). Bodyweight data, expressed as a percentage of the initial bodyweight, were analysed by two-way ANOVA followed by Dunnett's post-test for multiple comparisons to the vehicle-treated group and presented as mean percentage of the initial bodyweight ±SEM (FIG. 13).

Environmental stability = assay type: physicochemical
IL-6 = experiment: Inflammatory chemokine and cytokine analysis in CIA mice, IL-6; assay type: in vivo, mouse
Text: Inflammatory Chemokine and Cytokine Analysis: At the termination of the CIA study, mice were sacrificed and blood was harvested via cardiac punch using EDTA as an anticoagulant. […] Levels of various mouse cytokines in plasma were quantified using Bioplex® Suspension Array System according to manufacturer's instruction (BioRad, mTNFa (171-G5023M), mIL-6 (171-G5007M), mKC (171-G5018M), mIFNg (171-G5017M), mIL-17 (Z60-00006Z2), mIL-1β (171-G5002M), mMCP-1 (171-G5019M).

male NOD mice [4] = experiment: NOD mouse model, salivary gland secretion (pilocarpine-induced salivation assay); assay type: in vivo; conditions: all treatment groups
Experimental: Non-Obese Diabetic Mouse (NOD) Model of Sjogren's Syndrome. Male Non Obese Diabetic (NOD) mice from the KWS BioTest NOD colony and male BALB/c mice were randomly allocated to experimental groups and allowed to acclimatise for one week prior to the beginning of the study. From six weeks of age, animals were treated according to the administration schedule in Table 5, below. Each group consisted of n=12 animals. The administration volume was 15 ml/kg from 6-12 weeks of age. The administration volume was then decreased to 10 ml/kg from 13-20 weeks of age. The vehicle was distilled water pH 3.0-3.5 for Group 7. The vehicle was 0.5% methylcellulose and 0.25% Tween® 80 for all other groups.
Measurement of salivary gland secretion. Salivary gland secretion was measured every other week from six weeks of age. […] The weight of saliva collected was then measured using digital scales. […]
Salivary Gland Secretion. Salivary gland secretion was measured using the pilocarpine-induced salivation assay. Data are expressed as milligram of saliva per gram bodyweight. Data from this readout are indicative of inflammatory changes in the salivary glands, but significant changes are typically only seen from weeks 18 onwards in NOD mice. […] Data were analysed by two-way ANOVA followed by Dunnett's post-test for multiple comparisons to the vehicle-treated group (FIG. 16).

## C=CC(=O)Nc1cccc(Nc2nc(Nc3ccc(OCCOC)cc3)ncc2F)c1 [Compound 1 besylate, N-(3-(5-fluoro-2-(4-(2-methoxyethoxyl)phenylamino)pyrimidin-4-ylamino)phenyl)acrylamide besylate]
[1]; 3 mg/kg PO QD
  reduction of clinical signs of disease (inhibition of disease): 50%
[1]; 10 mg/kg PO QD
  reduction of clinical signs of disease (inhibition of disease): 85%
[1]; 30 mg/kg
  inhibition of histopathologic signs of disease (six joints): 96%
[1]; 30 mg/kg PO QD
  reduction of clinical signs of disease (inhibition of disease): 95%
[1]; all three dose levels (3, 10, 30 mg/kg)
  body weight loss associated with severity of disease: prevented the loss in body weight
Male NOD mice [2]
  salivary gland Area Score (proportion of infiltrated glandular tissue) vs vehicle: did not reduce
  salivary gland Focus Score (number of inflammatory foci) vs vehicle: did not reduce
[3]; 10 mg/kg SID, 8 weeks and 10 to 20 weeks of age
  bodyweight gain (% of initial bodyweight) vs vehicle-treated group: significant reduction in bodyweight gain
[3]; 10 mg/kg SID, at 13, 17, 19 and 20 weeks of age
  bodyweight (grams) vs vehicle-treated group: significant decrease in bodyweight
[3]; 30 mg/kg SID, 11 to 20 weeks of age
  bodyweight gain (% of initial bodyweight) vs vehicle-treated group: significant reduction in bodyweight gain
[3]; 30 mg/kg SID, from 14 to 20 weeks of age
  bodyweight (grams) vs vehicle-treated group: significant decrease in bodyweight
[3]; 50 mg/kg twice daily, 10 to 20 weeks of age
  bodyweight gain (% of initial bodyweight) vs vehicle-treated group: significant reduction in bodyweight gain
[3]; 50 mg/kg twice daily, from 11 to 20 weeks of age
  bodyweight (grams) vs vehicle-treated group: highly significant decrease in bodyweight
[3]; 100 mg/kg SID, 8 weeks and 10 to 20 weeks of age
  bodyweight gain (% of initial bodyweight) vs vehicle-treated group: significant reduction in bodyweight gain
[3]; ad libitum 0.16 mg/ml in drinking water, 8 to 20 weeks of age
  bodyweight gain (% of initial bodyweight) vs vehicle-treated group: highly significant reduction in bodyweight gain
[3]; ad libitum 0.16 mg/ml in drinking water, 8 weeks and 10 to 20 weeks of age
  bodyweight (grams) vs vehicle-treated group: highly significant decrease in bodyweight
Environmental stability
  environmental instabilities (heat, acid, base): no environmental instabilities
IL-6; 3 mg/kg
  IL-6 mean: 15.4 pg/mL
IL-6; 10 mg/kg
  IL-6 mean: 9.1* pg/mL
IL-6; 30 mg/lkg
  IL-6 mean: 10.5* pg/mL
Male NOD mice [4]
  salivary gland secretion between groups: No significant differences
